# Results from patent US11802120B2, “Fused cyclic urea derivatives as CRHR2 antagonist” (RaQualia Pharma Inc., priority 2018, dated 2023).
# Molecular target: T1, human CRHR2-alpha (Homo sapiens, UniProt Q13324)
# T1 sequence (Q13324 1-411): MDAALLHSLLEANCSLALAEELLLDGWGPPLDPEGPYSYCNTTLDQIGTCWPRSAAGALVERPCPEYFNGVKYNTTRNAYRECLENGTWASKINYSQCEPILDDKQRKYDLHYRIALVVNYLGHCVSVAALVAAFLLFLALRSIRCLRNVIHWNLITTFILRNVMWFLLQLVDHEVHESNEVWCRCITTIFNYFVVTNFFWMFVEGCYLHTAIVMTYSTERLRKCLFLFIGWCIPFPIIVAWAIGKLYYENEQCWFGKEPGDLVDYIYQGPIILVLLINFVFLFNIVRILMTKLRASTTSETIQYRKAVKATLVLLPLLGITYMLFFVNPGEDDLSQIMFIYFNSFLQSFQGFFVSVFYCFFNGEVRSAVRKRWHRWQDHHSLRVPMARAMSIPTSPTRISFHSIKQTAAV
# Assay: cAMP functional assay for human CRHR2 (LANCE Ultra cAMP, TR-FRET)
# Assay type: cell-based
# Settings: CHO-K1 cells expressing human CRHR2-alpha, agonist human urocortin2 at EC80, cAMP; read-out: IC50 against CRHR2
# How it was run: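 CHO-K1 cells stably expressing each receptor, serum-starved and cryopreserved, were preincubated with compound 30 min at 25° C in HBSS buffer with 0.5 mM IBMX, pH 7.4, then stimulated 30 min with EC80 agonist (urocortin2 for CRHR2, CRF for CRHR1). cAMP read by TR-FRET; IC50 from percent-inhibition curves.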
row,SMILES,IC50 [nM]
1,"Cc1ncc(Cl)cc1C(=O)N[C@H]1CC[C@H](Cn2c(=O)n(-c3ccc(NC4CCC4)nc3)c3ccccc32)CC1 [Example 125, 5-chloro-N-((1r,4r)-4-((3-(6-(cyclobutylamino)pyridin-3-yl)-2-oxo-2,3-dihydro-1H-benzo[d]imidazol-1-yl)methyl)cyclo-hexyl)-2-methylnicotinamide]",< 300
2,"COC1CCN(c2ccc(-n3c(=O)n(C[C@H]4CC[C@H](NC(=O)c5cc(Cl)cnc5C)CC4)c4ccccc43)cn2)CC1 [Example 126, 5-chloro-N-((1r,4r)-4-((3-(6-(4-methoxypiperidin-1-yl)pyridin-3-yl)-2-oxo-2,3-di-hydro-1H-benzo[d]imidazol-1-yl)methyl)cyclohexyl)-2-methylnicotinamide]",< 300
3,"Cc1ccc(-n2c(=O)n(C[C@H]3CC[C@H](NC(=O)c4cc(Cl)cnc4C)CC3)c3ccccc32)cc1CO [Example 127, 5-chloro-N-((1r,4r)-4-((3-(3-(hydroxymethyl)-4-methylphenyl)-2-oxo-2,3-dihydro-1H-benzo[d]imidazol-1-yl)methyl)cyclo-hexyl)-2-methylnicotinamide]",< 300
4,"Cc1ncc(Cl)cc1C(=O)N[C@H]1CC[C@H](Cn2c(=O)n(-c3ccc(C(=O)NC4COC4)cc3)c3ccccc32)CC1 [Example 130, 5-chloro-2-methyl-N-((1r,4r)-4-((3-(4-(oxetan-3-ylcarbamoyl)phenyl)-2-oxo-2,3-dihydro-1H-benzo[d]imidazol-1-yl)methyl)cyclohexyl)nicotinamide]",< 300
5,"CNc1ncc(-n2c(=O)n(C[C@H]3CC[C@H](NC(=O)c4cc(Cl)cnc4C)CC3)c3ccccc32)cc1C [Example 133, 5-chloro-2-methyl-N-((1r,4r)-4-((3-(5-methyl-6-(methyl-amino)pyridin-3-yl)-2-oxo-2,3-dihydro-1H-benzo[d]imidazol-1-yl)methyl)cyclohexyl) nicotinamide]",< 300
6,"Cc1ncc(Cl)cc1C(=O)N[C@H]1CC[C@H](Cn2c(=O)n(-c3ccc(OCCCO)nc3)c3ccccc32)CC1 [Example 134, 5-chloro-N-((1r,4r)-4-((3-(6-(3-hydroxypropoxy)pyridin-3-yl)-2-oxo-2,3-dihydro-1H-benzo[d]imidazol-1-yl)methyl)cyclohexyl)-2-methylnicotinamide]",< 300
7,"Cc1ncc(Cl)cc1C(=O)N[C@H]1CC[C@H](Cn2c(=O)n(-c3ccc(OC4COC4)nc3)c3ccccc32)CC1 [Example 140, 5-chloro-2-methyl-N-((1r,4r)-4-((3-(6-(oxetan-3-yloxy)pyridin-3-yl)-2-oxo-2,3-dihydro-1H-benzo[d]imidazol-1-yl)methyl)cyclohexyl)nicotinamide]",< 300
8,"Cc1ncc(Cl)cc1C(=O)N[C@H]1CC[C@H](Cn2c(=O)n(-c3ccc4c(cnn4C)c3)c3ccccc32)CC1 [Example 141, 5-chloro-2-methyl-N-((1r,4r)-4-((3-(1-methyl-1H-indazol-5-yl)-2-oxo-2,3-dihydro-1H-benzo [d]imidazol-1-yl)methyl)cyclohexyl)nicotinamide]",< 300
9,"COC1CN(c2ccc(-n3c(=O)n(C[C@H]4CC[C@H](NC(=O)c5cc(Cl)cnc5C)CC4)c4ccccc43)cn2)C1 [Example 144, 5-chloro-N-((1r,4r)-4-((3-(6-(3-methoxyazetidin-1-yl)pyridin-3-yl)-2-oxo-2,3-dihydro-1H-benzo[d]imidazol-1-yl)methyl)cyclohexyl)-2-methylnicotinamide]",< 300
10,"Cc1ncc(Cl)cc1C(=O)N[C@H]1CC[C@H](Cn2c(=O)n(-c3ccc(N4CC(F)C4)nc3)c3ccccc32)CC1 [Example 145, 5-chloro-N-((1r,4r)-4-((3-(6-(3-fluoroazetidin-1-yl)pyridin-3-yl)-2-oxo-2,3-dihydro-1H-benzo[d]imidazol-1-yl)methyl)cyclo-hexyl)-2-methylnicotinamide]",< 300
11,"Cc1ncc(Cl)cc1C(=O)N[C@H]1CC[C@H](Cn2c(=O)n(-c3ccc(N4CC(F)(F)C4)nc3)c3ccccc32)CC1 [Example 146, 5-chloro-N-((1r,4r)-4-((3-(6-(3,3-difluoroazetidin-1-yl)pyridin-3-yl)-2-oxo-2,3-dihydro-1H-benzo[d]imidazol-1-yl)methyl)cyclo-hexyl)-2-methylnicotinamide]",< 300
12,"Cc1ncc(Cl)cc1C(=O)N[C@H]1CC[C@H](Cn2c(=O)n(-c3ccc(NC4COC4)nc3)c3ccccc32)CC1 [Example 147, 5-chloro-2-methyl-N-((1r,4r)-4-((3-(6-(oxetan-3-ylamino)pyridin-3-yl)-2-oxo-2,3-dihydro-1H-benzo[d]imidazol-1-yl)methyl)cyclo-hexyl)nicotinamide]",< 300
13,"COc1ccc(-n2c(=O)n(C[C@H]3CC[C@H](NC(=O)c4cc(Cl)cnc4C)CC3)c3ccccc32)c(C)n1 [Example 149, 5-chloro-N-((1r,4r)-4-((3-(6-methoxy-2-methylpyridin-3-yl)-2-oxo-2,3-dihydro-1H-benzo[d]imidazol-1-yl)methyl)cyclohexyl)-2-methylnicotinamide]",< 300
14,"CNc1ccc(-n2c(=O)n(C[C@H]3CC[C@H](NC(=O)c4cc(Cl)cnc4C)CC3)c3ccccc32)c(C)n1 [Example 150, 5-chloro-2-methyl-N-((1r,4r)-4-((3-(2-methyl-6-(methylamino)pyridin-3-yl)-2-oxo-2,3-dihydro-1H-benzo[d]imidazol-1-yl)methyl)cyclohexyl)nicotinamide]",< 300
15,"Cc1ncc(Cl)cc1C(=O)N[C@H]1CC[C@H](Cn2c(=O)n(-c3ccc(C(=O)NC4CC4)nc3)c3ccccc32)CC1 [Example 151, 5-(3-(((1r,4r)-4-(5-chloro-2-methylnicotinamido)cyclo-hexyl)methyl)-2-oxo-2,3-dihydro-1H-benzo[d]imidazol-1-yl)-N-cyclopropyl-picolinamide]",< 300
16,"Cc1ncc(Cl)cc1C(=O)N[C@H]1CC[C@H](Cn2c(=O)n(-c3cnc4c(c3)CCN4)c3ccccc32)CC1 [Example 152, 5-chloro-N-((1r,4r)-4-((3-(2,3-dihydro-1H-pyrrolo[2,3-b]pyridin-5-yl)-2-oxo-2,3-dihydro-1H-benzo[d]imidazol-1-yl)methyl)cyclohexyl)-2-methylnicotinamide]",< 300
17,"Cc1ncc(Cl)cc1C(=O)N[C@H]1CC[C@H](Cn2c(=O)n(-c3ccc4ncoc4c3)c3ccccc32)CC1 [Example 153, N-((1r,4r)-4-((3-(benzo[d]oxazol-6-yl)-2-oxo-2,3-dihydro-1H-benzo[d]imidazol-1-yl)methyl)cyclo-hexyl)-5-chloro-2-methylnicotinamide]",< 300
18,"Cc1ncc(Cl)cc1C(=O)N[C@H]1CC[C@H](Cn2c(=O)n(-c3cnc4c(c3)CCN4C)c3ccccc32)CC1 [Example 154, 5-chloro-2-methyl-N-((1r,4r)-4-((3-(1-methyl-2,3-dihydro-1H-pyrrolo[2,3-b]pyridin-5-yl)-2-oxo-2,3-dihydro-1H-benzo[d]imidazol-1-yl)methyl)cyclohexyl)nicotinamide]",< 300
19,"CC(=O)N1CCc2cc(-n3c(=O)n(C[C@H]4CC[C@H](NC(=O)c5cc(Cl)cnc5C)CC4)c4ccccc43)cnc21 [Example 155, N-((1r,4r)-4-((3-(1-acetyl-2,3-dihydro-1H-pyrrolo[2,3-b]pyridin-5-yl)-2-oxo-2,3-dihydro-1H-benzo[d]imidazol-1-yl)methyl)cyclohexyl)-5-chloro-2-methylnicotinamide]",< 300
20,"Cc1ncc(Cl)cc1C(=O)N[C@H]1CC[C@H](Cn2c(=O)n(-c3cnc4cc[nH]c4c3)c3ccccc32)CC1 [Example 158, 5-chloro-2-methyl-N-((1r,4r)-4-((2-oxo-3-(1H-pyrrolo[3,2-b]pyridin-6-yl)-2,3-dihydro-1H-benzo[d]imidazol-1-yl)methyl)cyclohexyl)nicotinamide]",< 300
21,"Cc1ncc(Cl)cc1C(=O)N[C@H]1CC[C@H](Cn2c(=O)n(-c3cnc4c(c3)OCCN4)c3ccccc32)CC1 [Example 159, 5-chloro-N-((1r,4r)-4-((3-(3,4-dihydro-2H-pyrido[3,2-b][1,4]oxazin-7-yl)-2-oxo-2,3-dihydro-1H-benzo[d]imidazol-1-yl)methyl)cyclohexyl)-2-methylnicotinamide]",< 300
22,"Cc1ncc(Cl)cc1C(=O)N[C@H]1CC[C@H](Cn2c(=O)n(-c3cnc4c(c3)OCCN4C)c3ccccc32)CC1 [Example 160, 5-chloro-2-methyl-N-((1r,4r)-4-((3-(4-methyl-3,4-dihydro-2H-pyrido[3,2-b][1,4]oxazin-7-yl)-2-oxo-2,3-dihydro-1H-benzo [d]imidazol-1-yl)methyl)cyclo-hexyl)nicotinamide]",< 300
23,"Cc1ncc(Cl)cc1C(=O)N[C@H]1CC[C@H](Cn2c(=O)n(-c3ccc(N4CC(N(C)C)C4)nc3)c3ccccc32)CC1 [Example 161, 5-chloro-N-((1r,4r)-4-((3-(6-(3-(dimethylamino)azetidin-1-yl)pyridin-3-yl)-2-oxo-2,3-dihydro-1H-benzo[d]imidazol-1-yl)methyl)cyclohexyl)-2-methylnicotinamide]",< 300
24,"Cc1ncc(Cl)cc1C(=O)N[C@H]1CC[C@H](Cn2c(=O)n(-c3ccc(N4CCC4)nc3)c3ccccc32)CC1 [Example 162, N-((1r,4r)-4-((3-(6-(azetidin-1-yl)pyridin-3-yl)-2-oxo-2,3-dihydro-1H-benzo[d]imidazol-1-yl)methyl)cyclo-hexyl)-5-chloro-2-methyl-nicotinamide]",< 300
